The source made the active and inactive calls. No cut-off for these calls is given here.

A short description of data set [1]: Inhibition of LPS-induced PGE2 production in C57BL6 mouse peritoneal cells measured at 5 hrs time interval by ELISA. It is filed as functional. To be noted: C57BL6, 5 h. For orientation: ELISA stands for enzyme-linked immunosorbent assay.
Data set [2] is filed under the species Mus musculus. The data set is described as follows: Inhibition of LPS-induced PGE2 production in C57BL6 mouse peritoneal cells at 50 uM measured at 5 hrs time interval by ELISA. It is filed as functional.
Data set [3] is described as follows: Cytotoxicity against C57BL6 mouse peritoneal cells assessed as cell viability measured at 5 hrs time interval by LDH release assay (reference value: 98.9 +/- 1.6%). The format is cell-based. Conditions: read-out: Activity. Background: Release of lactate dehydrogenase indicates damage to the cell membrane.

In general, IC50 refers to the concentration that inhibits the measured activity by half. A higher IC50 goes with weaker potency in that assay. `CC(=O)Oc1ccccc1C(=O)O` [ASPIRIN] yielded a half-inhibitory concentration (IC50) in data set [1] of 4080 nM.

For the molecule `COc1ccc(-c2nc(N)nc(-c3ccc(C)cc3)c2C)cc1`, the inhibition entry in data set [2] is “Active”. Regarding `CCCCc1c(-c2ccccc2)nc(N)nc1-c1ccc(C)cc1`, the inhibition result in data set [2] is “Active”. Further, the half-maximal inhibitory concentration (IC50) in data set [1] turned out to be 2460 nM. Also, the viability at 5 h in data set [3] came out at 102%. `Cc1c(Cl)nc(N)nc1-c1ccccc1`: the inhibition result in data set [2] is “Active”. On to `CCCCc1c(-c2ccc(OC)cc2)nc(N)nc1-c1ccc(OC)cc1`, for which the inhibition result in data set [2] is “Active”. In data set [1], the IC50 amounted to 3710 nM. For the same molecule, the viability at 5 h in data set [3] was 99.1%. As for `Cc1ccc(-c2nc(N)nc(-c3ccc(C)cc3)c2C)cc1`, the inhibition entry in data set [2] is “Active”. For the molecule `CCCCc1c(-c2ccccc2)nc(N)nc1-c1ccc(OC)cc1`, the inhibition result in data set [2] was “Active”. The midpoint of inhibition in data set [1], the IC50, lay at 3400 nM. Moreover, the viability at 5 h in data set [3] was found to be 102%. In the same order, the values of `Cc1ccc(-c2cc(-c3ccc(C)cc3)nc(N)n2)cc1` are “Active”, 33 nM and 103%.

Take `Nc1nc(Cl)cc(-c2ccccc2)n1`: the inhibition result in data set [2] is “Active”.

With `Cc1ccc(-c2nc(N)nc(Cl)c2C)cc1`, the inhibition result in data set [2] was “Active”. `COc1ccc(-c2nc(N)nc(-c3ccccc3)c2C)cc1`: in data set [2], the inhibition result was “Active”. As for `CCCCc1c(Cl)nc(N)nc1Cl`, in data set [2], the inhibition result was “Active”. For the same molecule, the IC50 in data set [1] is 5340 nM. Also, the viability at 5 h in data set [3] amounted to 99.8%. With `CCCCc1c(Cl)nc(N)nc1-c1ccc(OC)cc1`, the inhibition result in data set [2] was “Active”. The same molecule came in with an IC50 in data set [1] of 2160 nM. In data set [3], the viability at 5 h was 96.6%.

As for `COc1ccc(-c2nc(N)nc(-c3ccc(OC)cc3)c2C)cc1`, in data set [2], the inhibition entry is “Active”. Turning to `CCCCc1c(-c2ccccc2)nc(N)nc1-c1ccccc1`, the inhibition result in data set [2] was “Active”. As to `CCCCc1c(Cl)nc(N)nc1-c1ccc(C)cc1`, the inhibition entry in data set [2] was “Active”. Half-maximal inhibition in data set [1] (IC50) was put at 1860 nM. Besides, the viability at 5 h in data set [3] is 101%. For `Nc1nc(Cl)cc(Cl)n1`, the inhibition entry in data set [2] is “inactive”. Turning to `Cc1ccc(-c2cc(-c3ccccc3)nc(N)n2)cc1`, the inhibition result in data set [2] was “Active”. This molecule showed an IC50 in data set [1] of 9 nM. In addition, the viability at 5 h in data set [3] was found to be 103%.

On to `Cc1c(Cl)nc(N)nc1Cl`, for which the inhibition result in data set [2] is “inactive”.

As for `CCCCc1c(-c2ccc(C)cc2)nc(N)nc1-c1ccc(OC)cc1`, in data set [2], the inhibition result was “Active”. Regarding `Cc1ccc(-c2nc(N)nc(-c3ccccc3)c2C)cc1`, the inhibition entry in data set [2] was “Active”. On to `Cc1ccc(-c2cc(Cl)nc(N)n2)cc1`, for which, in data set [2], the inhibition result was “Active”. Also, in data set [1], the concentration for half-maximal inhibition (IC50) turned out to be 2320 nM. Besides, the viability at 5 h in data set [3] amounted to 103%. `CCCCc1c(-c2ccc(C)cc2)nc(N)nc1-c1ccc(C)cc1`: in data set [2], the inhibition result is “Active”.

As to `COc1ccc(-c2cc(-c3ccc(C)cc3)nc(N)n2)cc1`, in data set [2], the inhibition result was “Active”.

Take `COc1ccc(-c2cc(Cl)nc(N)n2)cc1`: the inhibition entry in data set [2] is “Active”. The molecule further gave a half-inhibitory concentration (IC50) in data set [1] of 2790 nM. Also, the viability at 5 h in data set [3] worked out at 103%. In the same order, the values of `Nc1nc(-c2ccccc2)cc(-c2ccccc2)n1` are “Active”, 3 nM and 97.4%. Take `COc1ccc(-c2nc(N)nc(Cl)c2C)cc1`: in data set [2], the inhibition entry was “Active”. As to `CCCCc1c(Cl)nc(N)nc1-c1ccccc1`, the inhibition entry in data set [2] is “Active”. In turn, `COc1ccc2c(c1)c(CC(=O)O)c(C)n2C(=O)c1ccc(Cl)cc1` [INDOMETHACIN] had an IC50 in data set [1] of 5 nM. On to `Cc1c(-c2ccccc2)nc(N)nc1-c1ccccc1`, for which the inhibition result in data set [2] is “Active”. With `COc1ccc(-c2cc(-c3ccccc3)nc(N)n2)cc1`, in data set [2], the inhibition entry was “Active”. For the same molecule, the IC50 in data set [1] stood at 9 nM. Further, the viability at 5 h in data set [3] was 99.9%.

`COc1ccc(-c2cc(-c3ccc(OC)cc3)nc(N)n2)cc1`: in data set [2], the inhibition entry is “Active”. For the same molecule, the IC50 in data set [1] was 119 nM. Further, the viability at 5 h in data set [3] came to 102%.

Source of the values: ChEMBL document CHEMBL4270549, “Influence of the C-5 substitution in polysubstituted pyrimidines on inhibition of prostaglandin E2 production” (Eur J Med Chem, 2018).
